In paper PMC9934367, “Functional impact of subunit composition and compensation on Drosophila melanogaster nicotinic receptors–targets of neonicotinoids” (PLOS Genetics, 2023):

Test system: D. melanogaster nAChRs
Test: Comparison of agonist activity between nAChRs expressed in X. laevis oocytes (one-way ANOVA, Kruskal-Wallis)
Assay type: cell-based
Method: We minimised the use of X. laevis according to the UK Animals (Scientific Procedures) Act, 1986. […] Oocytes were defolliculated after collagenase treatment in Ca^2+-free standard oocyte saline (Ca^2+-free SOS). cRNAs of the nAChR subunits and co-factors mixed at a concentration of 0.1 mg/mL was injected into oocytes at a volume of 50 nL. Then the oocytes were incubated in the incubation medium (SOS supplemented with sodium pyruvate (Nacalai Tesque, #13058–12), penicillin-streptomycin (MilliporeSigma, #P4333), gentamycin (Nacalai Tesque, #16672–04), and 4% horse serum (Thermo Fisher Scientific, #26050–070) for 3−4 days prior to electrophysiology.
Each defolliculated X. laevis oocyte was secured in a Perspex recording chamber and perfused with the standard oocyte saline (SOS) containing 0.5 μM atropine (SOSA) at a flow rate of 7−10 mL/min [48]. Two glass electrodes filled with 2 M KCl were impaled into each oocyte and the membrane potential was clamped at -100 mV. […] The peak amplitude of the response was measured and analysed by pCLAMP (Molecular Devices, USA).
Y=Imax/1+10^(logEC50‐X)nH
Where Y is the normalised response, X is log[ligand (M)], EC50 is the half maximal concentration (M), Imax is the maximum normalised response and nH is the Hill coefficient.
Prism software was employed for the statistical analyses. […] One-way ANOVA was used to analyse the differences of the ligand agonist activity in terms of pEC50 on the various nAChRs expressed in X. laevis as well as data obtained with D. melanogaster larvae and adults.

Question: How did the “Difference of pEC50 values, nAChRs compared” value (“Difference … nAChRs compared” for short) (Dα1/Dα2/Dα3/Dβ1/Dβ2 vs. Dα1/Dα2/Dβ1/Dβ2/Dβ3) turn out when CC(=O)OCC[N+](C)(C)C [ACh, acetylcholine] was run?
Answer: The value was 0.07.

Question: And the “Difference … nAChRs compared” value (Dα1/Dα2/Dα3/Dβ1/Dβ2 vs. Dα1/Dα3/Dα4/Dβ1/Dβ2)?
Answer: The value was -0.30.

Question: And the “Difference … nAChRs compared” value (Dα1/Dα2/Dα3/Dβ1/Dβ2 vs. Dα1/Dα3/Dβ1/Dβ2/Dβ3)?
Answer: Its value is -1.34.

Question: And the “Difference … nAChRs compared” value (Dα1/Dα2/Dα3/Dβ1/Dβ2 vs. Dα2/Dα3/Dα4/Dβ1/Dβ2)?
Answer: The value was -1.00.

Question: And the “Difference … nAChRs compared” value (Dα1/Dα2/Dα3/Dβ1/Dβ2 vs. Dα2/Dα3/Dβ1/Dβ2/Dβ3)?
Answer: Its value is -1.52.

Question: What about the “Difference of pEC50 values” (Dα1/Dα2/Dα3/Dβ1 vs. Dα1/Dα2/Dα3/Dβ1/Dβ2) of the same compound?
Answer: The value was 0.94.

Question: And the “Difference of pEC50 values” (Dα1/Dα2/Dα3/Dβ1 vs. Dα1/Dα2/Dβ1/Dβ2)?
Answer: Its value is 0.51.

Question: What about the “Difference of pEC50 values” (Dα1/Dα2/Dα3/Dβ1 vs. Dα1/Dα3/Dβ1/Dβ2) of the same compound?
Answer: Its value is -1.00.

Question: And the “Difference of pEC50 values” (Dα1/Dα2/Dα3/Dβ1 vs. Dα1/Dβ1/Dβ2)?
Answer: The value was 0.68.

Question: And the “Difference of pEC50 values” (Dα1/Dα2/Dα3/Dβ1 vs. Dα3/Dβ1/Dβ2)?
Answer: The value was -0.76.

Question: What about the “Difference of pEC50 values” (Dα1/Dα2/Dβ1/Dβ2 vs. Dα2/Dα3/Dβ1/Dβ2) of the same compound?
Answer: The value was -1.07.

Question: And the “Difference of pEC50 values” (Dα1/Dα2/Dβ1 vs. Dα1/Dα2/Dα3/Dβ1)?
Answer: The value was -1.29.

Question: And the “Difference of pEC50 values” (Dα1/Dα2/Dβ1 vs. Dα1/Dα2/Dα3/Dβ1/Dβ2)?
Answer: Its value is -0.35.

Question: What about the “Difference of pEC50 values” (Dα1/Dα2/Dβ1 vs. Dα1/Dα2/Dβ1/Dβ2) of the same compound?
Answer: The value was -0.78.

Question: What about the “Difference of pEC50 values” (Dα1/Dα2/Dβ1 vs. Dα1/Dα3/Dβ1/Dβ2) of the same compound?
Answer: Its value is -2.29.

Question: And the “Difference of pEC50 values” (Dα1/Dα2/Dβ1 vs. Dα2/Dα3/Dβ1)?
Answer: Its value is -1.31.

Question: What about the “Difference of pEC50 values” (Dα1/Dα2/Dβ1 vs. Dα2/Dα3/Dβ1/Dβ2) of the same compound?
Answer: The value was -1.85.

Question: What about the “Difference of pEC50 values” (Dα1/Dα2/Dβ1 vs. Dα3/Dβ1/Dβ2) of the same compound?
Answer: The value was -2.05.

Question: And the “Difference of pEC50 values” (Dα1/Dα3/Dβ1/Dβ2 vs. Dα1/Dα2/Dα3/Dβ1/Dβ2)?
Answer: Its value is 1.94.

Question: What about the “Difference of pEC50 values” (Dα1/Dα3/Dβ1/Dβ2 vs. Dα1/Dα2/Dβ1/Dβ2) of the same compound?
Answer: Its value is 1.51.

Question: And the “Difference of pEC50 values” (Dα1/Dα3/Dβ1 vs. Dα1/Dα2/Dα3/Dβ1/Dβ2)?
Answer: Its value is 1.36.

Question: What about the “Difference of pEC50 values” (Dα1/Dα3/Dβ1 vs. Dα1/Dα2/Dβ1) of the same compound?
Answer: Its value is 1.71.

Question: What about the “Difference of pEC50 values” (Dα1/Dα3/Dβ1 vs. Dα1/Dα2/Dβ1/Dβ2) of the same compound?
Answer: The value was 0.93.

Question: What about the “Difference of pEC50 values” (Dα1/Dα3/Dβ1 vs. Dα1/Dβ1/Dβ2) of the same compound?
Answer: Its value is 1.10.

Question: What about the “Difference of pEC50 values” (Dα1/Dα3/Dβ1 vs. Dα2/Dα3/Dβ1) of the same compound?
Answer: Its value is 0.40.

Question: What about the “Difference of pEC50 values” (Dα1/Dα3/Dβ1 vs. Dα3/Dβ1/Dβ2) of the same compound?
Answer: Its value is -0.34.

Question: And the “Difference of pEC50 values” (Dα1/Dβ1/Dβ2 vs. Dα1/Dα2/Dα3/Dβ1/Dβ2)?
Answer: The value was 0.26.

Question: What about the “Difference of pEC50 values” (Dα1/Dβ1/Dβ2 vs. Dα1/Dα3/Dβ1/Dβ2) of the same compound?
Answer: Its value is -1.68.

Question: What about the “Difference of pEC50 values” (Dα1/Dβ1/Dβ2 vs. Dα2/Dα3/Dβ1/Dβ2) of the same compound?
Answer: The value was -1.24.

Question: And the “Difference of pEC50 values” (Dα1/Dβ1/Dβ2 vs. Dα3/Dβ1/Dβ2)?
Answer: The value was -1.44.

Question: What about the “Difference of pEC50 values” (Dα1/Dβ1 vs. Dα1/Dα2/Dα3/Dβ1/Dβ2) of the same compound?
Answer: The value was 0.75.

Question: What about the “Difference of pEC50 values” (Dα1/Dβ1 vs. Dα1/Dα2/Dβ1) of the same compound?
Answer: Its value is 1.10.

Question: And the “Difference of pEC50 values” (Dα1/Dβ1 vs. Dα1/Dα2/Dβ1/Dβ2)?
Answer: Its value is 0.32.

Question: And the “Difference of pEC50 values” (Dα1/Dβ1 vs. Dα1/Dα3/Dβ1/Dβ2)?
Answer: The value was -1.19.

Question: And the “Difference of pEC50 values” (Dα1/Dβ1 vs. Dα1/Dβ1/Dβ2)?
Answer: The value was 0.49.

Question: What about the “Difference of pEC50 values” (Dα1/Dβ1 vs. Dα2/Dα3/Dβ1) of the same compound?
Answer: The value was -0.21.

Question: And the “Difference of pEC50 values” (Dα1/Dβ1 vs. Dα2/Dα3/Dβ1/Dβ2)?
Answer: The value was -0.75.

Question: And the “Difference of pEC50 values” (Dα1/Dβ1 vs. Dα3/Dβ1)?
Answer: Its value is -0.90.

Question: What about the “Difference of pEC50 values” (Dα1/Dβ1 vs. Dα3/Dβ1/Dβ2) of the same compound?
Answer: Its value is -0.95.

Question: What about the “Difference of pEC50 values” (Dα2/Dα3/Dβ1/Dβ2 vs. Dα1/Dα2/Dα3/Dβ1/Dβ2) of the same compound?
Answer: Its value is 1.50.

Question: And the “Difference of pEC50 values” (Dα2/Dα3/Dβ1 vs. Dα1/Dα2/Dα3/Dβ1)?
Answer: The value was 0.02.

Question: What about the “Difference of pEC50 values” (Dα2/Dα3/Dβ1 vs. Dα1/Dα2/Dα3/Dβ1/Dβ2) of the same compound?
Answer: The value was 0.96.

Question: And the “Difference of pEC50 values” (Dα2/Dα3/Dβ1 vs. Dα1/Dα3/Dβ1/Dβ2)?
Answer: The value was -0.98.

Question: What about the “Difference of pEC50 values” (Dα2/Dα3/Dβ1 vs. Dα1/Dβ1/Dβ2) of the same compound?
Answer: Its value is 0.70.

Question: And the “Difference of pEC50 values” (Dα2/Dα3/Dβ1 vs. Dα3/Dβ1/Dβ2)?
Answer: Its value is -0.74.

Question: And the “Difference of pEC50 values” (Dα3/Dβ1/Dβ2 vs. Dα1/Dα2/Dα3/Dβ1/Dβ2)?
Answer: Its value is 1.70.

Question: What about the “Difference of pEC50 values” (Dα3/Dβ1/Dβ2 vs. Dα1/Dα2/Dβ1/Dβ2) of the same compound?
Answer: Its value is 1.27.

Question: What about the “Difference of pEC50 values” (Dα3/Dβ1/Dβ2 vs. Dα1/Dα3/Dβ1/Dβ2) of the same compound?
Answer: The value was -0.24.

Question: And the “Difference of pEC50 values” (Dα3/Dβ1/Dβ2 vs. Dα2/Dα3/Dβ1/Dβ2)?
Answer: The value was 0.20.

Question: What about the “Difference of pEC50 values” (Dα3/Dβ1 vs. Dα1/Dα2/Dα3/Dβ1) of the same compound?
Answer: Its value is 0.71.

Question: What about the “Difference of pEC50 values” (Dα3/Dβ1 vs. Dα1/Dα2/Dα3/Dβ1/Dβ2) of the same compound?
Answer: Its value is 1.65.

Question: And the “Difference of pEC50 values” (Dα3/Dβ1 vs. Dα1/Dα2/Dβ1)?
Answer: The value was 2.00.

Question: And the “Difference of pEC50 values” (Dα3/Dβ1 vs. Dα1/Dα2/Dβ1/Dβ2)?
Answer: Its value is 1.22.

Question: And the “Difference of pEC50 values” (Dα3/Dβ1 vs. Dα1/Dα3/Dβ1)?
Answer: Its value is 0.29.

Question: And the “Difference of pEC50 values” (Dα3/Dβ1 vs. Dα1/Dα3/Dβ1/Dβ2)?
Answer: The value was -0.29.

Question: What about the “Difference of pEC50 values” (Dα3/Dβ1 vs. Dα1/Dβ1/Dβ2) of the same compound?
Answer: The value was 1.39.

Question: And the “Difference of pEC50 values” (Dα3/Dβ1 vs. Dα2/Dα3/Dβ1)?
Answer: The value was 0.69.

Question: And the “Difference of pEC50 values” (Dα3/Dβ1 vs. Dα3/Dβ1/Dβ2)?
Answer: The value was -0.05.
